Measured values from US20100016156A1, “Pesticidal Mixtures” (BASF SE, priority 2007, published 2010).

Experiments:
[1] = tested on: Blumeria graminis f. sp. tritici; experiment: Control of powdery mildew on wheat (protective spray, greenhouse); format: in vivo; conditions: 7 days after inoculation, untreated 70% infection
Procedure: Preparation: The spray solutions were prepared in several steps:
A stock solution was prepared: a mixture of acetone and/or DMSO and the wetting agent/emulsifier Uniperol, which is based on ethoxylated alkylphenoles, in a relation (volume) solvent-emulsifier of 99 to 1 was added to 25 mg of the compound to give a total of 10 ml. Water was then added to total volume of 100 ml.
This stock solution was diluted with the described solvent-emulsifier-water mixture to the given concentration.
The first fully developed leaves of pot grown wheat were sprayed to run-off with an aqueous suspension, containing the concentration of active ingredient or their mixture mentioned in the table below. […] After cultivation in the greenhouse for 7 days at 22-26° C. and a relative humidity between 60 to 90% the extent of fungal attack on the leaves was visually assessed as % diseased leaf area.
The visually determined percentages of infected leaf areas were converted into efficacies in % of the untreated control:
The efficacy (E) is calculated as follows using Abbot's formula: […]
The expected efficacies of active compound combinations were determined using Colby's formula (Colby, S. R. “Calculating synergistic and antagonistic responses of herbicide combinations”, Weeds, 15, 20-22, 1967) and compared with the observed efficacies. […]

Pyrenophora teres = experiment: Control of net blotch on barley (protective spray, greenhouse); format: in vivo, Pyrenophora (syn. Drechslera) teres; conditions: 6 days after inoculation, untreated 70% infection
Procedure: Preparation: The spray solutions were prepared in several steps: A stock solution was prepared: a mixture of acetone and/or DMSO and the wetting agent/emulsifier Uniperol, which is based on ethoxylated alkylphenoles, in a relation (volume) solvent-emulsifier of 99 to 1 was added to 25 mg of the compound to give a total of 10 ml. Water was then added to total volume of 100 ml. This stock solution was diluted with the described solvent-emulsifier-water mixture to the given concentration. The first fully developed leaves of pot grown barley plants were sprayed to run-off with an aqueous suspension, containing the concentration of active ingredient or their mentioned in the table below. The next day the treated plants were inoculated with an aqueous spore suspension of Pyrenophora (syn. Drechslera) teres. Then the trial plants were immediately transferred to a humid chamber in the greenhouse. After 6 days of cultivation at 20-24° C. and a relative humidity close to 70%, the extent of fungal attack on the leaves was visually assessed as % leaf area. Evaluation was carried out analogously to example 1.

CN/C(=N\[N+](=O)[O-])NCc1cnc(Cl)s1 [Clothianidine, (E)-1-(2-chloro-1,3-thiazol-5-ylmethyl)-3-methyl-2-nitroguanidine]
Efficacy in % of the untreated control ([1]; 0.25 ppm in spray liquor): 0% | Efficacy in % of the untreated control (Pyrenophora teres; 4 ppm in spray liquor): 0% | Efficacy in % of the untreated control (Pyrenophora teres; 16 ppm in spray liquor): 0%

CO/N=C(/C1=NOCCO1)c1ccccc1Oc1ncnc(Oc2ccccc2Cl)c1F [Fluoxastrobin, (E)-{2-[6-(2-chlorophenoxy)-5-fluoropyrimidin-4-yloxy]phenyl}(5,6-dihydro-1,4,2-dioxazin-3-yl)methanone O-methyloxime]
Efficacy in % of the untreated control ([1]; 0.063 ppm in spray liquor): 0% | Efficacy in % of the untreated control (Pyrenophora teres; 0.25 ppm in spray liquor): 0%
